Reference: patent US10441562B2, “Aromatic farnesyl compound and application thereof” (INSTITUTE OF MICROBIOLOGY, CHINESE ACADEMY OF SCIENCES, priority 2015, dated 2019)
Marks after values point to notes of the source that are not given here.

Legend:
[1] = test system: hyperglycemia KK-A^y mice; assay: blood lipid and liver function of hyperglycemia KK-A^y mice; type: in vivo; conditions: 3 weeks
Description: (§1) Materials: accurately weigh the 2 compounds S13 and S28 discussed in example 2, and then add 0.5% CMC-Na to make the solution of 5 mg/ml used for activity test. KK-A^y mice are purchased from Chinese Academy of Medical Sciences & Peking Union Medical College Institute of Animal Studies. Experiments are carried out after adapting to the environment (T=20-24° C., constant humidity: 50-60%, 12 hours light exposure (8:00-20:00), soundproof, free feeding and drinking) for 1 week. Glucometer is purchased from Roche.
(§2) Methods: 10 male C57 mice of 6-8 weeks of 20-22 g are used as normal control group (1). Detect the fasting glucose of male KK-A^y mice, which are 6-8 weeks with the weight of 28-32 g, and divide them into different groups according to the blood sugar level and body weight: (2) model control group, (3) which is administered by compound S13 with the dose of 1 mg/kg, (4) which is administered by compound S13 with the dose of 5 mg/kg, (5) which is administered by compound S13 with the dose of 10 mg/kg, (6) which is administered by compound S13 with the dose of 20 mg/kg, (7) which is administered by compound S28 with the dose of 1 mg/kg, (8) which is administered by compound S28 with the dose of 5 mg/kg, (9) which is administered by compound S28 with the dose of 10 mg/kg, (10) which is administered by compound S28 with the dose of 20 mg/kg, (11) which is administered by metformin with the dose of 8 g/kg, (12) which is administered by compound S13 with the dose of 2.5 mg/kg and metformin with the dose of 4 g/kg, (13) which is administered by compound S13 with the dose of 5 mg/kg and metformin with the dose of 4 g/kg, (14) which is administered by compound S28 with the dose of 2.5 mg/kg and metformin with the dose of […], (15) which is administered by compound S28 with the dose of 5 mg/kg and metformin with the dose of […]. Each group has 8 mice, and is administrated successively for 3 weeks. Model control group is given with equal amounts of 0.5% CMC-Na.
4) After the last administration, the mice are executed under anesthesia, and blood is taken to be centrifuged at 3000 rpm in 4[…]. Serum total cholesterol, low density lipoprotein and triglyceride TG are detected.

aldose reductase = aldose reductase (Homo sapiens, UniProt P15121); assay: aldose reductase inhibitory activity test in vitro; type: biochemical
Outline: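 Absorbance assay with 0.1 mM NADPH solution and enzyme preincubated with compound 10 min at room temperature, then 10 mM D,L-glyceraldehyde solution added as substrate. Incubation 30 min at 37 °C in PBS. Read-out is optical density at 340 nm, corrected with blank (no compound) and background (no substrate) wells.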

[2] = test system: hyperglycemia KK-A^y mice; assay: blood sugar of hyperglycemia KK-A^y mice; type: in vivo; design: blood sugar: unit not given here; conditions: for blood sugar at the 1st day, 0: 1st day 0 h; for blood sugar at the 1st day, 30 min: 1st day 30 min after intragastric administration
Description: as §1, §2
1) Effects of drugs on blood sugar: at the first day after administration, the mice are fasted for 2 hours and blood is collected (0 h) to detect the fasting blood sugar. After the compound is given to the mice by intragastric administration for 30 min, blood is collected from tip of tail to detect the blood sugar level.
2) Effects on body weight and blood sugar: the body weight of mice are recorded at the 2th, 5th, 8th, 11th, 14th, 17th, 20th day after administration, and blood is collected from tip of tail to detect the blood sugar level (see table 10).

CC(C)=CCC/C(C)=C/CCC1=C[C@H](c2cc(O)ccc2O)OC1=O [S13, (R,E)-5-(2,5-dihydroxyphenyl)-3-(4,8-dimethylnona-3,7-dien-1-yl)furan-2(5H)-one]
ALT ([1]; 1 mg/kg, groups 3, 7): 72.1** U/L | AST ([1]; 1 mg/kg, groups 3, 7): 56.2** U/L | HDL-C ([1]; 1 mg/kg, groups 3, 7): 22.4 mg/dL | LDL-C ([1]; 1 mg/kg, groups 3, 7): 64* mg/dL | SOD ([1]; 1 mg/kg, groups 3, 7): 5.01** U/L | TC ([1]; 1 mg/kg, groups 3, 7): 132** mg/dL | TG ([1]; 1 mg/kg, groups 3, 7): 328** mg/dL | ALT ([1]; 5 mg/kg, groups 4, 8): 72.8** U/L | AST ([1]; 5 mg/kg, groups 4, 8): 63.5** U/L | HDL-C ([1]; 5 mg/kg, groups 4, 8): 22.4 mg/dL | LDL-C ([1]; 5 mg/kg, groups 4, 8): 64** mg/dL | SOD ([1]; 5 mg/kg, groups 4, 8): 4.24* U/L | TC ([1]; 5 mg/kg, groups 4, 8): 134** mg/dL | TG ([1]; 5 mg/kg, groups 4, 8): 310** mg/dL | ALT ([1]; 10 mg/kg, groups 5, 9): 67.1** U/L | AST ([1]; 10 mg/kg, groups 5, 9): 60.8** U/L | HDL-C ([1]; 10 mg/kg, groups 5, 9): 22.5 mg/dL | LDL-C ([1]; 10 mg/kg, groups 5, 9): 64** mg/dL | SOD ([1]; 10 mg/kg, groups 5, 9): 4.11** U/L | TC ([1]; 10 mg/kg, groups 5, 9): 131** mg/dL | TG ([1]; 10 mg/kg, groups 5, 9): 327** mg/dL | ALT ([1]; 20 mg/kg, groups 6, 10): 61.2** U/L | AST ([1]; 20 mg/kg, groups 6, 10): 60.5** U/L | HDL-C ([1]; 20 mg/kg, groups 6, 10): 22.1 mg/dL | LDL-C ([1]; 20 mg/kg, groups 6, 10): 53** mg/dL | SOD ([1]; 20 mg/kg, groups 6, 10): 4.52** U/L | TC ([1]; 20 mg/kg, groups 6, 10): 125** mg/dL | TG ([1]; 20 mg/kg, groups 6, 10): 310** mg/dL | IC50 (aldose reductase): 1.8 µM | effect on blood sugar of hyperglycemia mice (in words) [2]: significant effects on blood sugar of hyperglycemia mice | blood sugar at the 1st day, 0 ([2]; 1 mg/kg, groups 3, 7): 14.7 | blood sugar at the 1st day, 0 ([2]; 5 mg/kg, groups 4, 8): 14.8 | blood sugar at the 1st day, 0 ([2]; 10 mg/kg, groups 5, 9): 14.9 | blood sugar at the 1st day, 0 ([2]; 20 mg/kg, groups 6, 10): 14.7 | blood sugar at the 1st day, 30 min ([2]; 1 mg/kg, groups 3, 7): 11.1 | blood sugar at the 1st day, 30 min ([2]; 5 mg/kg, groups 4, 8): 9.2 | blood sugar at the 1st day, 30 min ([2]; 10 mg/kg, groups 5, 9): 9.21 | blood sugar at the 1st day, 30 min ([2]; 20 mg/kg, groups 6, 10): 6.24 | blood sugar ([2]; 2st day, 1 mg/kg, groups 3, 7): 17.3 | blood sugar ([2]; 2st day, 5 mg/kg, groups 4, 8): 10.1 | blood sugar ([2]; 2st day, 10 mg/kg, groups 5, 9): 13.98 | blood sugar ([2]; 2st day, 20 mg/kg, groups 6, 10): 13.2 | blood sugar ([2]; 5st day, 1 mg/kg, groups 3, 7): 14.1 | blood sugar ([2]; 5st day, 5 mg/kg, groups 4, 8): 10.8 | blood sugar ([2]; 5st day, 10 mg/kg, groups 5, 9): 13.5 | blood sugar ([2]; 5st day, 20 mg/kg, groups 6, 10): 12.9 | blood sugar ([2]; 8st day, 1 mg/kg, groups 3, 7): 13.8 | blood sugar ([2]; 8st day, 5 mg/kg, groups 4, 8): 7.1 | blood sugar ([2]; 8st day, 10 mg/kg, groups 5, 9): 14.1 | blood sugar ([2]; 8st day, 20 mg/kg, groups 6, 10): 12.8 | blood sugar ([2]; 11st day, 1 mg/kg, groups 3, 7): 15.1 | blood sugar ([2]; 11st day, 5 mg/kg, groups 4, 8): 8.2 | blood sugar ([2]; 11st day, 10 mg/kg, groups 5, 9): 14.2 | blood sugar ([2]; 11st day, 20 mg/kg, groups 6, 10): 12.8 | blood sugar ([2]; 14st day, 1 mg/kg, groups 3, 7): 12.3 | blood sugar ([2]; 14st day, 5 mg/kg, groups 4, 8): 8.2 | blood sugar ([2]; 14st day, 10 mg/kg, groups 5, 9): 13.9 | blood sugar ([2]; 14st day, 20 mg/kg, groups 6, 10): 12.5 | blood sugar ([2]; 17st day, 1 mg/kg, groups 3, 7): 13.1 | blood sugar ([2]; 17st day, 5 mg/kg, groups 4, 8): 8.2 | blood sugar ([2]; 17st day, 10 mg/kg, groups 5, 9): 14.5 | blood sugar ([2]; 17st day, 20 mg/kg, groups 6, 10): 12.3 | blood sugar ([2]; 20st day, 1 mg/kg, groups 3, 7): 12.8 | blood sugar ([2]; 20st day, 5 mg/kg, groups 4, 8): 10.1 | blood sugar ([2]; 20st day, 10 mg/kg, groups 5, 9): 14.59 | blood sugar ([2]; 20st day, 20 mg/kg, groups 6, 10): 12.5
